According to patent US11807685B2, “Anti-CD47 antibody and uses thereof” (THE UAB RESEARCH FOUNDATION, priority 2021, dated 2023):

Tests used:
MDA-MB-231 cells [1] = assay: In vitro cytotoxicity assay (CellTiter-Glo); type: cell-based, human; details: for cell viability: 3-day assay
Method: (§1) The 96-well plates were seeded with MDA-MB-231 and MDA-MB-468 cells at VCD of 5×10^5 cells/mL in 100 μL of DMEM/F12 complete medium with triplication. Then 100 μL of cell growth medium containing ADC or free drug was added to reach final concentrations of 0-200 nM and incubated in CO2 incubator for 72 hrs. The cytotoxicity of ADC or free drug was measured with CellTiter-Glo Luminescent Cell Viability Assay (Promega, Madison, […]) and reported as the relative viability using untreated cells as control. The IC50 value was calculated using ED50V10 Excel add-in.

MDA-MB-468 cells [2] = assay: In vitro cytotoxicity assay (CellTiter-Glo); type: cell-based, human; details: for cell viability: 3-day assay
Method: as §1

CD47 = assay: Western blotting of CD47 in GC treated MDA-MB-231 cells; type: cell-based, human; details: 10 nM for 3 weeks
Method: The non-reducing SDS-PAGE was run by loading 2 μg of mAb or ADC to Bolt™ 4 to 12%, Bis-Tris Mini Protein Gel (1.0 mm) to validate the purity and integrality of the produced anti-CD47 mAb and ADC. In Western blotting analysis, 30 μg of total cell lysis protein was loaded to gel and electro-transferred to PVDF membrane using PowerEase™ Touch 350 W Power Supply (Fisher). After blocking, the blotted membrane was probed using primary rabbit anti-mouse antibody and HRP-conjugated secondary anti-rabbit antibody (Abcam, Cambridge, UK). The blotted membrane was treated with Luminata Forte Western HRP substrate (Millipore, Boston, MA). The SDS-PAGE and Western blots were imaged with MyECL imager and quantified using ImageJ software.
The surface expression of CD47 in TNBC cell lines was analyzed using mass spectrometry (MS, Thermo Orbitrap Velos Pro) at the University of Alabama at Birmingham (UAB) MS and proteomics core facility. […] Furthermore, to confirm the CD47 upregulation by chemotherapy, we treated MDA-MB-231 cells with 10 nM GC for 3 weeks.

[3] = test system: MDA-MB-231-FLuc xenograft; assay: IVIS imaging of in vivo TNBC targeting; design: species or system mouse
Excerpt: (§2) Human TNBC xenograft mouse model was generated by subcutaneously (s.c.) injecting 3×10^6 of MDA-MB-231-FLuc cells into the 6-week-old NSG (NOD scid gamma) female mice (Jackson Labs, Bar Harbor, ME). This immunocompromised model was used to evaluate the tumor targeting of our mAb and anti-TNBC efficacy of the constructed ADC. The immunocompetent mouse model was generated by injecting 1×10^6 of mouse TNBC 4T1-FLuc cells into the BALB/cJ female mice, which was used to analyze the tumoral immunity. Mice developed tumors within 2 weeks post cells injection.
When TNBC tumor volume reached approximately 100 mm^3, 50 μg of Cyanine 5.5 (Cy5.5, Lumiprobe, Hunt Valley, MD) labelled anti-CD47 mAb or 1.5 nmole Cy5.5 (control, similar amount as labelled Cy5.5 in mAb) was intravenously (i.v.) administrated via tail vein for TNBC-targeting analysis. Mice were imaged at 24 hrs post mAb injection under IVIS Lumina Series III (PerkinElmer, Waltham, MA) with wavelength of 660 nm/710 nm (excitation/emission) and exposure time of 10 seconds. Inhalation anesthesia was induced by delivering 3.5-4.5% isoflurane in oxygen to mice via respiratory system (nose cone), then maintained with a concentration of 1-2% during imaging procedure.

MDA-MB-231 cells [4] = assay: Flow cytometry surface binding; design: species or system human; details: MDA-MB-231, mAb-AF647, flow cytometry
Method: (§3) The flow cytometry was conducted to analyze anti-CD47 mAb's binding rate to TNBC cells and quantify the immune cells using a BD LSRII flow cytometer (BD Biosciences, San Jose, CA). In surface binding analysis, the produced CD47 mAb was labelled with an Alexa Fluor™ 647 labelling kit (Life Technologies, part of Fisher) and used to stain MDA-MB-468, MDA-MB-231, 4T1, and 184B5 cells with 5 μg of mAb-AF647 per million of cells at room temperature for 30 mins (Ou, J.; et al. PLOS ONE 2018; Si, Y.; et al. Pharmaceutics 2020, 12:1079-1090; Ou, J.; et al. J Biol Eng 2019, 13:34). The harvested lymph nodes were dissociated with Tissue Dissociation/Single Cell Isolation Kit (101 Bio LLC, Sunnyvale, CA) following manufacturing procedure, and stained with Cy5 anti-CD69 antibody, APC anti-CD11c antibody, or PE/Cy7 anti-CD4 antibody (BioLegend, San Diego, CA) for flow cytometry analysis.

MDA-MB-468 cells [5] = assay: Flow cytometry surface binding; design: species or system human; details: MDA-MB-468, mAb-AF647, flow cytometry
Method: as §3

4T1 cells = assay: Flow cytometry surface binding; details: mouse TNBC 4T1, mAb-AF647, flow cytometry
Method: as §3

[6] = test system: normal breast 184B5 cells; assay: Flow cytometry surface binding; details: normal 184B5 cells, mAb-AF647, flow cytometry
Method: as §3

MDA-MB-468 cells [7] = assay: Live-cell confocal imaging of internalization; type: cell-based, human; details: AF647 labelled mAb
Excerpt: Confocal microscopy imaging was collected to validate the targeting and internalization of anti-CD47 mAb in TNBC cells following our reported protocol (Si, Y.; et al. Cancer Gene Therapy. Cancer Gene Therapy 2020; Si, Y.; et al. Eng Life Sci 2021, 21:37-44; Ou, J.; et al. PLOS ONE 2018; Si, Y.; et al. Pharmaceutics 2020, 12:1079-1090; Si, Y.; et al. Biotechnol J 2019). Briefly, the MDA-MB-468 cells were stained with BacMam GFP Transduction Control, which expresses eGFP protein in cytoplasm, NucBlue Live ReadyProbes to stain nucleus, and AF647 labelled anti-CD47 mAb to target TNBC cells via surface receptor. The live-cell images were collected using a Nikon A1R-HD25 confocal microscope with a high-speed resonance scanner (Nikon USA, Melville, NY).

[8] = test system: MDA-MB-231-FLuc xenograft; assay: In vivo anti-TNBC efficacy study; design: species or system mouse; unit not given here; details: 8 mg/kg i.v. Q4Dx4, terminal tumor; no significant difference to PBS group
Excerpt: as §2
The TNBC MDA-MB-231-FLuc xenograft mice were treated with 16 mg/kg-BW of GC by intraperitoneal (IP) injection when tumor volume reached ˜50 mm^3. […] Tumor volume was measured using an electronic caliper and calculated as “width×width×length/2” in mm. Body weight was measured every other day. The in vivo treatment study was ended after 21-day treatment which was determined based on our previous ADC treatment animal study (Si, Y.; et al. Eng Life Sci 2021, 21:37-44; Ou, J.; et al. PLoS One 2018, 13:e0206246; Xu, N.; et al. Biochemical Engineering Journal 2019, 145:177-185). At the end of the experiment, mice were euthanized and the TNBC tumors were collected to measure the wet weight.

[9] = Toxicity in the efficacy study (body weight, H&E staining of organs); type: in vivo, mouse; details: 8 and 24 mg/kg ADC, 8 mg/kg mAb, PBS; Q4Dx4
Method: […] […] Tumor volume was measured using an electronic caliper and calculated as “width×width×length/2” in mm. Body weight was measured every other day. The in vivo treatment study was ended after 21-day treatment which was determined based on our previous ADC treatment animal study (Si, Y.; et al. Eng Life Sci 2021, 21:37-44; Ou, J.; et al. PLoS One 2018, 13:e0206246; Xu, N.; et al. Biochemical Engineering Journal 2019, 145:177-185). At the end of the experiment, mice were euthanized and the TNBC tumors were collected to measure the wet weight.
The IHC and H&E staining were performed. In IHC staining, the paraffin-embedded slides were immersed in xylene followed by 3% H2O2 in PBS, and blocked with 3% normal goat serum. The rabbit anti-mouse CD11b mAb (Cell Signaling, Danvers, MA) and HRP-conjugated goat anti-rabbit IgG mAb were used to stain the macrophage in tumor tissue. After color development with DAB chromogen, the slides were counterstained with hematoxylin and dehydrated in absolute ethanol. In H&E staining, the embedded normal organ slides were dewaxed, hydrated with 100%-0% ETOH, immersed in hematoxylin solution, and rinsed with tap water and eosin. After equilibration in ethanol, the stained slides were dipped in Xylene and mounted with cytoseal Xyl.

[10] = Whole blood analysis (HemaVet 950FS) in 4T1 xenograft BALB/cJ model; type: in vivo, mouse; details: 8 mg/kg, after two weeks, BALB/cJ 4T1 xenograft
Excerpt: The blood samples were extracted by cardiac puncture for whole blood analysis using HemaVet 950FS (Drew Scientific, Miami Lakes, FL). The leukocytes (white blood cell, neutrophil, lymphocyte, monocyte, eosnophils), erythrocytes (red blood cell, hemoglobin, mean corpuscular hemoglobin), and thrombocytes (platelet) were titrated to analyze the general peripheral immune response.
as §2
The general immune response to anti-CD47 mAb was also tested using whole blood analysis and flow cytometry analysis of lymph nodes in the 4T1 xenograft BALB/cJ model (n=4). The mice carrying 50 mm^3 xenograft were treated with 8 mg/kg anti-CD47 mAb. After two weeks, blood was collected through cardiac puncture. […] The lymph nodes were also harvested and dissociated for flow cytometry analysis of fresh cells. […]

lymph node immune cells = assay: Flow cytometry analysis of immune cells in lymph nodes, 4T1 xenograft BALB/cJ model; type: in vivo, mouse; details: 8 mg/kg, BALB/cJ 4T1 xenograft
Method: as §3, §2
The general immune response to anti-CD47 mAb was also tested using whole blood analysis and flow cytometry analysis of lymph nodes in the 4T1 xenograft BALB/cJ model (n=4). The mice carrying 50 mm^3 xenograft were treated with 8 mg/kg anti-CD47 mAb. After two weeks, blood was collected through cardiac puncture. […] The lymph nodes were also harvested and dissociated for flow cytometry analysis of fresh cells. […] In the future, a full investigation of immune function in tumor microenvironment is needed in order to delineate the possible anti-TNBC immunity of this mAb.

Molecule: COc1cc2cc(c1Cl)N(C)C(=O)C[C@H](OC(=O)[C@H](C)N(C)C(=O)CCS)[C@]1(C)O[C@H]1[C@H](C)[C@@H]1C[C@@](O)(NC(=O)O1)[C@H](OC)/C=C/C=C(\C)C2 [DM1, mertansine]
- cell viability (MDA-MB-231 cells [1]; MDA-MB-231, 25 nM): 94%
- cell viability (MDA-MB-231 cells [1]; MDA-MB-231, 50 nM): 72%
- cell viability (MDA-MB-231 cells [1]; MDA-MB-231, 100 nM): 53%
- cell viability (MDA-MB-231 cells [1]; MDA-MB-231, 200 nM): 54%
- IC50 (MDA-MB-231 cells [1]; MDA-MB-231, 72 hrs): 47 nM
- cell viability (MDA-MB-468 cells [2]; MDA-MB-468, 25 nM): 56%
- cell viability (MDA-MB-468 cells [2]; MDA-MB-468, 50 nM): 37%
- cell viability (MDA-MB-468 cells [2]; MDA-MB-468, 100 nM): 32%
- cell viability (MDA-MB-468 cells [2]; MDA-MB-468, 200 nM): 34%
- IC50 (MDA-MB-468 cells [2]; MDA-MB-468, 72 hrs): 21 nM

Molecule: Nc1ccn([C@@H]2O[C@H](CO)[C@@H](O)C2(F)F)c(=O)n1 [GC, gemcitabine]
- CD47 expression (CD47): increased

Molecule: Cyanine 5.5 [Cy5.5]
- distribution in major organs (brain, heart, lung, spleen, kidney, liver) ([3]; 24 hrs post i.v. injection, IVIS): distributed in multiple locations such as brain, liver and kidney

B1: anti-CD47 mAb: anti-CD47 mAb (IgG2b/kappa) targeting the extracellular domain (Gln19-Glu141) of CD47; heavy chain SEQ ID NO:1, light chain SEQ ID NO:2 (antibody)
heavy: MLLGLKWVFFVVFYQGVHCEVQLVESGGGLVQPKGSLKLSCAASGFTFNTYAMNWVRQAPGKGLEWIARIRSKSNNYATYYADSMKDRFTISRDDSQSMLYLQMNNLKTEDTAMYYCVRPAQGAMDYWGHGTSVTVSSSKTTPPSVYPLAPGCGDTTGSSVTLGCLVKGYFPESVTVTWNSGSLSSSVHTFPALLQSGLYTMSSSVTVPSSTWPSQTVTCSVAHPASSTTVDKKLEPSGPISTINPCPPCKECHKCPAPNLEGGPSVFIFPPNIKDVLMISLTPKVTCVVVDVSEDDPDVQISWFVNNVEVHTAQTQTHREDYNSTIRVVSTLPIQHQDWMSGKEFKCKVNNKDLPSPIERTISKIKGLVRAPQVYILPPPAEQLSRKDVSLTCLVVGFNPGDISVEWTSNGHTEENYKDTAPVLDSDGSYFIYSKLNMKTSKWEKTDSFSCNVRHEGLKNYYLKKSFSRTPGK
light: MVFTPQILGLMLFWISASRGDIVLTQSPATLSVTPGDSVSLSCRASQRISNNLHWYQQKSHESPRLLIKYSSQSISGIPSRFSGSGSGTDFTLSINSVETEDFGMYFCQQSNAWPYTFGGGTKLEIRRADAAPTVSIFPPSSEQLTSGGASVVCFLNNFYPKDINVKWKIDGSERQNGVLNSWTDQDSKDSTYSMSSTLTLTKDEYERHNSYTCEATHKTSTSPIVKSFNRNEC
- surface binding (MDA-MB-231 cells [4]): 97.3%
- surface binding (MDA-MB-468 cells [5]): 98.9%
- surface binding (4T1 cells): 90.5%
- surface binding [6]: 4.39%
- time to internalization and localization in cytoplasm after mixing (MDA-MB-468 cells [7]): ≤ 60 min
- time to targeting and accumulation in TNBC tumor post i.v. injection ([3]; mouse, in vivo, iv): ≤ 24 h
- tumor weight [8]: 307±76
- overall body weight change among the four groups [9]: no obvious difference
- leukocytes, erythrocytes and thrombocytes counts vs PBS control group [10]: no obvious difference
- CD11c+ DC cells in lymph nodes (lymph node immune cells; PBS control 5.44%): 8.49%
- CD69+ NK cells in lymph nodes (lymph node immune cells; PBS control 6.55%): 10.3%
- CD4+ T cells in lymph nodes (lymph node immune cells; PBS control 63.8%): 68.3%
